According to paper PMC8752837, “Structural basis of BAK activation in mitochondrial apoptosis initiation” (Nature Communications, 2022):
Marks after values point to notes of the source that are not given here. Numbered stars: 1 amine (or outer) side, 2 acyl side, 3 side chain; on linkers, the order of the positions; unused ones are H or OH. Bridge positions count the residues as written; N and C are the ends. Square brackets hold non-standard residues; d marks the D form. Peptide text beside a SMILES is read from it. I, II: the chains in the order shown. Actinocin(9to1) = Cc1c2oc3c(C)ccc(C(=O)[*:1])c3nc-2c(C(=O)[*:2])c(N)c1=O; NMeV = CN[C@H](C(=O)O)C(C)C; Sar = CNCC(=O)O

How the values were obtained:
[1] = test system: bak−/− bax−/− HCT116 cells; experiment: Apoptosis initiated by actinomycin D and TRAIL + CHX in cells constitutively expressing BAK; format: cell-based, human; settings: AUC of SYTOX Green +ve counts/confluence, 0-48 hr, n = 3
Excerpt: We enriched for GFP positive cell populations by up to four rounds of sorting. Cells were used in apoptosis assays. […]
and doxycycline (Dox)-inducible mC-BAK. d, Representative i mmunoblot for BID and sypro red staining of BCL2allKO HCT116 cells expressing V74A and D83A mC-BAK and BID from n=2 independent experiments. e, Representative immunoblot of bak-/- bax- […]
from n=2 independent experiments . GFP positive cells were sorted three and four times to achieve similar expression levels. […]
human TRAIL and cycloheximide (CHX).
Data are presented as mean + SD for one representative of n=2 experiments each of n=3 technical replicates. g, Experimental […]
BAK (mC-BAK) monitored for 48 hr by IncuCyte imaging uptake of cell-impermeable dye SYTOX Green. AUC for kinetic traces is included. At 48 hr, we quantified percentage of SYTOX Green +ve cells (%) by fluorescence activated cell sorting (FACS). Data are presented as mean + SD from one of n=3 experiments each of n=3

[2] = biological target: T1, Human BAK-∆TM-His6 (BAK) (Homo sapiens, UniProt Q16611); experiment: Liposome permeabilization assay (ANTS/DPX dye release from LUVs): activation of WT BAK by BH3 peptides;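 as to AUC for Experiment-2 (Mean): traces normalized between buffer minimum and 3% CHAPS maximum fluorescence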;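 as to AUC for Experiment-3 (Mean): traces normalized between buffer minimum and 3% CHAPS maximum fluorescence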; format: biochemical; parameters: AUC for Experiment-2 (Mean) / AUC for Experiment-3 (Mean) / AUC for Experiment-1 (Mean):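 traces normalized between buffer minimum and 3% CHAPS maximum fluorescence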; settings: for BAK activation or inhibition in liposome permeabilization / EC50: 50 nM BAK; for BAK activation or inhibition in liposome permeabilization: disubstituted BID-like BH3 peptides, Fig. 5c; for AUC for Experiment-1 (Mean) / AUC for Experiment-2 (Mean) / AUC for Experiment-3 (Mean): AUC 0-88 mins of liposome permeabilization; for AUC for Experiment-1 (Mean): Experiment-1, mean of N replicates; for AUC for Experiment-2 (Mean): Experiment-2, mean of N replicates; for AUC for Experiment-3 (Mean): Experiment-3, mean of N replicates; for EC50: Fig. 4e, AUC vs peptide dose (Suppl. Fig. 6b), n = 2 experiments each of n = 3 technical replicates, read-out: EC50 LP
T1 construct: C-terminus truncated recombinant human BAK containing C-terminal 6× histidine tag (MEAS-BAK); made in house; host or cells: E. coli T7 Express pLac I/Y
T1 sequence (Q16611 1-186 limits assumed): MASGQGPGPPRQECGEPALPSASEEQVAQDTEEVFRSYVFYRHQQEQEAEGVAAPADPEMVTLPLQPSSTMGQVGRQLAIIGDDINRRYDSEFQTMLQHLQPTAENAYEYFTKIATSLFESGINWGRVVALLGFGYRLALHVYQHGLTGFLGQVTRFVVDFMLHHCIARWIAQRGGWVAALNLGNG
Experimental: We performed liposome permeabilization assays as previously described[43]–[46]. […] We mixed the lipid film in ANTS/DPX solution by vortexing and sonication (~15 min) followed by extrusion through polycarbonate membrane of 2 μm pore size (Avanti Polar lipids) to generate homogenous large unilamellar vesicles (LUVs). We separated LUVs from free ANTS/DPX by S500 size exclusion chromatography and stored them at 4 °C in the dark. We prepared peptide and protein dilutions in 96-well black flat bottom plates (Costar) kept on ice. […] We quantified liposome permabilization by integrating area under curve (AUC) of normalized traces based on the Simpson’s equation, and analyzed that data in Excel and GraphPad Prism. AUC measurements reflect the kinetic and extent of liposome permeabilization and provide quantitative means for comparison between different experimental conditions (e.g., BAK mutants with gross or partial variation in activity).

[3] = biological target: T2, MEAS-BAK-His6 (Homo sapiens, UniProt Q16611); experiment: Surface plasmon resonance; format: binding; settings: 20 °C
T2 construct: C-terminus truncated recombinant human BAK containing C-terminal 6× histidine tag (MEAS-BAK); made in house; host or cells: E. coli T7 Express pLac I/Y
T2 sequence (Q16611 1-186 limits assumed): T1 sequence (Q16611 1-186 limits assumed)
Experimental: We conducted SPR experiments at 20 °C using a Pioneer FE optical biosensor (ForteBio) amd histidine-tagged MEAS-BAK-His6 immobilized on polycarboxylate hydrogel-coated gold chips preimmobilized with nitrilotriacetic acid (HisCap chips; ForteBio). We primed the chip in chelating buffer (10 mM HEPES pH 7.4, 150 mM NaCl, 50 µM EDTA, 0.005% Tween20) and preconditioned it at 10 µL/min with three 60 s injections of wash buffer (10 mM HEPES pH 8.3, 150 mM NaCl, 350 mM EDTA, 0.05% Tween20) and one 60 s injection of chelating buffer before charging with a 60 s injection of 500 µM NiCl2 in chelating buffer. After priming into binding buffer (20 mM HEPES pH 8.0, 200 mM NaCl, 1 mM TCEP, 0.01% Tween20), we injected BAK to achieve ~500 RU of captured protein. As reference cell, we charged one flow cell on the chip with Ni^2+ without adding protein. […] We included a series of buffer-only (blank) injections throughout the experiment to account for instrumental noise. […] We processed, double-referenced, solvent corrected, and analyzed the data using the software package Qdat (version 4.3.1.2, ForteBio). We determined kinetic rate constants and affinities by fitting the data to a 1:1 interaction model.

[4] = biological target: T3, WT tevBAK (Homo sapiens, UniProt Q16611); experiment: Isothermal titration calorimetry; format: binding; settings: for % bound: estimated as ([BID BH3] × 100)/(KD + [BID BH3])
T3 construct: To generate tevBAK (residues 22–186), we cleaved off the histidine tag with TEV protease; His tag (vector pNIC28-Bsa4) (N, cleaved yes); made in house; host or cells: E. coli T7 Express pLac I/Y
T3 sequence (Q16611 22-186): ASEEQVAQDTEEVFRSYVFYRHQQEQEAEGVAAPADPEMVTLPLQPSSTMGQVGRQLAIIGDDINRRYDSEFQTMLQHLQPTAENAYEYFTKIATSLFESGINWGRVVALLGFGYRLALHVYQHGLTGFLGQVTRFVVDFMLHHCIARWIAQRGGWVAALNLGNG
Experimental: Protein samples were exchanged into 20 mM HEPES, 100 mM NaCl and 1 mM TCEP prior to the experiment. Titrations were performed by first injecting 0.5 μl of 250 or 500 µM BID BH3 peptides into a solution of 20 or 50 µM BAK followed by additional 2 μl injections. […] Results were analyzed using Origin software (OriginLab) provided by MicroCal. Binding constants (KD) and thermodynamic parameters were calculated from the average of two or three individual titrations by fitting the data to a single site binding model using a nonlinear least-squares fitting algorithm.

[5] = biological target: T4, GST-BAK (Homo sapiens, UniProt Q16611); experiment: Competitive fluorescence polarization assay (displacement of BID BH3 SAHB-F); format: binding; settings: displacement of 10 nM BID BH3 SAHB-fluorescein from 1 µM GST-BAK; peptide 500−0.2 µM; 60 min RT; mean ± SD, n = 9 experiments; read-out: IC50 FP
T4 construct: made in house
T4 sequence (Q16611 1-211): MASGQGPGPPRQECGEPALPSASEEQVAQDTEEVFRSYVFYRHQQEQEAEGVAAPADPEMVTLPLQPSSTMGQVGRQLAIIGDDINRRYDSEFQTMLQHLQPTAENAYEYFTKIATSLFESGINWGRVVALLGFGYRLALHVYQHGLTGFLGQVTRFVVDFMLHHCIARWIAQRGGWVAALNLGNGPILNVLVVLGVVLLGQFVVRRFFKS
Excerpt: We also tested the monosubstituted peptides in competitive fluorescence polarization (FP) binding assays, which measure displacement from GST-BAK of BID BH3 stabilized alpha helix of BCL-2 proteins (SAHB) C-terminally tagged with fluorescein and thus informs on peptide binding affinity.
We carried out fluorescence polarization assays, measuring the displacement of the fluorescent peptide BID BH3 SAHB-F from GST-BAK, in 384-well Greiner black polystyrene plates with flat bottom (Sigma-Aldrich). Master mix consisted of 50 mM Tris-HCl pH 7.5, 50 mM KCl, 0.1 mg/mL BSA, 2 mM DTT, 0.005% Tween-20, 10 nM BID BH3 SAHB-F, and 1 µM GST-BAK. We pin transferred peptides using Biomek FX (Beckman Coulter Life Sciences, IN) to achieve final concentration of 500−0.2 µM in 20 µL final volume. We gently centrifuged plates to remove air bubbles for 1 min at 1000 rpm, and incubated them for 60 min at RT. […] Free peptide controls in each plate consisted of only BID BH3 SAHB-F and bound peptide controls containing BID BH3 SAHB-F + GST-BAK. We derived Z’-values using the equation [1 − 3(stdev^L + stdev^H)]/(average^H − average^L), where L is the free peptide control and H is the bound peptide control. […] We processed and visualized data using the software Robust Investigation of Screening Experiments (RISE) developed in house in the Pipeline Pilot platform (Accelrys, v.8.5.0). We performed at least three independent dose-response experiments for each peptide. We estimated IC50 values in RISE and GraphPad Prism v.8.0a.

[6] = 25 °C, single site binding model

Cc1c2oc3c(C)ccc(C(=O)N[C@@H]4C(=O)N[C@H](C(C)C)C(=O)N5CCC[C@H]5C(=O)N(C)CC(=O)N(C)[C@@H](C(C)C)C(=O)O[C@@H]4C)c3nc-2c(C(=O)N[C@@H]2C(=O)N[C@H](C(C)C)C(=O)N3CCC[C@H]3C(=O)N(C)CC(=O)N(C)[C@@H](C(C)C)C(=O)O[C@@H]2C)c(N)c1=O [ActD] (I: T[dV]P[Sar][NMeV] / II: T[dV]P[Sar][NMeV]; ester I:1-I:C, II:1-II:C; linker I:N-II:N via Actinocin(9to1))
AUC ActD ([1]; V74A 3x 15% + ActD 0.5): 753.275 | AUC ActD ([1]; V74A 3x 15% + ActD 2): 847.336 | AUC ActD ([1]; V74A 3x 15% + qVD + ActD 2): 104.738 | AUC ActD ([1]; V74A 4x 15% + ActD 0.5): 679.364 | AUC ActD ([1]; V74A 4x 15% + ActD 2): 932.591 | AUC ActD ([1]; V74A 4x 15% + qVD + ActD 0.5): 208.982 | AUC ActD ([1]; V74A 4x 15% + qVD + ActD 2): 91.8357 | AUC ActD ([1]; WT 4x 15% + ActD 0.5): 821.8 | AUC ActD ([1]; WT 4x 15% + ActD 2): 1113.4 | AUC ActD ([1]; WT 4x 15% + qVD + ActD 0.5): 162.981 | AUC ActD ([1]; WT 4x 15% + qVD + ActD 2): 59.6671

Ac-EDIIRNIARHLAQWGDSMDRSW-NH2 [W(3)W(5)]
BAK activation or inhibition in liposome permeabilization ([2]; listed as W(3)W(5) BID BH3 ligand): fully inhibitory | BAK activation or inhibition in liposome permeabilization ([2]; listed as W(3)W(5) BID BH3 peptide): activates BAK efficiently at low doses, yet inhibits BAK at high doses | SPR kd ([3]; 1:1 interaction model): 2.41±0.01 ×10-2 s-1 | kon ([3]; 1:1 interaction model, read-out: SPR ka): 71900 ± 100 M⁻¹ s⁻¹ | Kd ([3]; MEAS-BAK-His6 captured on Ni-NTA HisCap chip, three-fold peptide dilution series injected in triplicate, 1:1 interaction model, read-out: SPR KD): 0.336 ± 0.001 µM | SPR Rmax ([3]; ~500 RU captured BAK): 79.2±0.1 RU | % of BAK bound to peptide under crystallization conditions ([4]; 10 mg/mL BAK (0.5 mM) and 2 mM peptide, from KD of […]): ~99.99% | ITC -T∆S [4, 6]: 23.1 ± 6.69 kJ/mol | ITC ∆G [4, 6]: -37.7 ± 0.418 kJ/mol | ITC ∆H [4, 6]: -60.88 ± 7.36 kJ/mol | % bound ([4]; [BID BH3] 1 μM, listed as W3W5 peptide): 80% | % bound ([4]; [BID BH3] 10 μM): 97.5%

Ac-EDIWRNIARHLAQVGDSMDRSI-NH2 [W(0')]
AUC for Experiment-1 (Mean) ([2]; 1 μM peptide + 50 nM BAK): 15.025 | AUC for Experiment-2 (Mean) ([2]; 1 μM peptide + 50 nM BAK): 10.6297 | AUC for Experiment-3 (Mean) ([2]; 1 μM peptide + 50 nM BAK): 8.405 | AUC for Experiment-1 (Mean) ([2]; 50 μM peptide + 50 nM BAK): 12.2448 | AUC for Experiment-2 (Mean) ([2]; 50 μM peptide + 50 nM BAK): 5.78* | AUC for Experiment-3 (Mean) ([2]; 50 μM peptide + 50 nM BAK): 12.8163 | EC50 [2]: 0.242 ± 0.0663 µM | IC50 [5]: 27.4 ± 16.4 µM

Ac-EDWIRNIARHLAQVGDSMDRSI-NH2 [W(0)]
AUC for Experiment-1 (Mean) ([2]; 1 μM peptide + 50 nM BAK): 14.3256 | AUC for Experiment-2 (Mean) ([2]; 1 μM peptide + 50 nM BAK): 13.2515 | AUC for Experiment-3 (Mean) ([2]; 1 μM peptide + 50 nM BAK): 14.8765 | AUC for Experiment-1 (Mean) ([2]; 50 μM peptide + 50 nM BAK): 13.3871 | AUC for Experiment-2 (Mean) ([2]; 50 μM peptide + 50 nM BAK): 11.7489 | AUC for Experiment-3 (Mean) ([2]; 50 μM peptide + 50 nM BAK): 12.1647 | EC50 [2]: 0.365 ± 0.0228 µM | IC50 [5]: 10.8 ± 5.5 µM
